{"source": "patent CN101784271A", "about": "“孕激素和(6s)-5-甲基四氢叶酸的组合在治疗子宫内膜异位症并同时减轻治疗副作用以及降低怀孕初期的先天畸形的风险中的应用” (priority 2007, dated 2008)", "key": {"[1]": {"conditions": "cited from earlier work"}, "[2]": {"assay": "Clinical study in endometriosis patients, pain by visual analogue scale (VAS)", "assay_type": "in vivo, human", "conditions": "over 6 months"}, "[3]": {"conditions": "attributed to partial androgenic action, not progestational activity; cited from earlier work"}, "ovulation (排卵)": {"system": "ovulation (排卵)", "conditions": "daily dose; no test or source given; cited from earlier work"}, "[4]": {"conditions": "2 mg dienogest daily, 24 weeks, endometriosis patients"}}}
{"smiles": "C[C@]12CCC3=C4CCC(=O)C=C4CC[C@H]3[C@@H]1CC[C@@]2(O)CC#N", "note": "[DNG]", "values": [{"measurement": "intolerable menstruation", "setting": "[1]; [4]", "value": "没有报道不可耐受的月经"}, {"measurement": "patients reporting irregular menstruation", "setting": "[1]; [4]", "value": "≤ 90", "unit": "%"}, {"measurement": "treatment result compared with danazol or GnRH agonist", "setting": "[1]; [4]", "value": "相当"}, {"measurement": "change in pain (VAS) at end of treatment compared with start of study", "setting": "[2]; DNG oral 2 mg/d (124 patients) or LA 3.75 mg s.c. every 4 weeks (128 patients), endometriosis diagnosed by laparoscopy", "value": -47.5, "unit": "mm"}, {"measurement": "statistical comparison of efficacy, DNG versus LA", "setting": "[2]; DNG oral 2 mg/d vs LA 3.75 mg s.c. every 4 weeks", "value": "不劣于LA"}]}
{"smiles": "C#C[C@]1(O)CC[C@H]2[C@@H]3CCC4=CC(=O)CC[C@@H]4[C@H]3CC[C@@]21CC", "note": "[左炔诺孕酮]", "values": [{"measurement": "effect on bone metabolism", "setting": "[3]", "value": "对骨代谢的正面影响"}]}
{"smiles": "C#C[C@]1(O)CC[C@H]2[C@@H]3CCC4=Cc5oncc5C[C@]4(C)[C@H]3CC[C@@]21C", "note": "[达那唑]", "values": [{"measurement": "side effects of standard endometriosis treatment", "setting": "[1]; human, in vivo", "value": "显著的雄激素效应"}]}
{"smiles": "CC(=O)O[C@]1(C(C)=O)CC[C@H]2[C@@H]3C=C(Cl)C4=CC(=O)CC[C@]4(C)[C@H]3CC[C@@]21C", "note": "[醋酸氯地孕酮]", "values": [{"measurement": "ovulation inhibition dose", "setting": "ovulation (排卵)", "value": 1.7, "unit": "mg"}]}
{"smiles": "CC(=O)O[C@]1(C(C)=O)CC[C@H]2[C@@H]3C=C(Cl)C4=CC(=O)[C@@H]5C[C@@H]5[C@]4(C)[C@H]3CC[C@@]21C", "note": "[醋酸环丙孕酮]", "values": [{"measurement": "ovulation inhibition dose", "setting": "ovulation (排卵)", "value": 1, "unit": "mg"}]}
